These results are taken from patent US20220403048A1, “BINDING MOLECULES TO ARGINASE II [ARG2]” (Cancer Research Technology Limited, priority 2019, published 2022).

Structures are written as SMILES. Numbering of substitutions follows the chain as printed. Like-named read-outs stand apart in the source and are kept apart here. Marks after values point to notes of the source that are not given here.

Test [1] deals with both ARG isoforms. The settings on record: cited from earlier work; for Kd: both ARG isoforms at physiologic pH, read-out: binding constant (KD).
In test [2] the target is T1, THP-1 lysate derived human trimeric ARG2 (Homo sapiens, UniProt P78540).
T1 construct: expressed in transfected cells; host or cells: THP-1 cells overexpressing human ARG2 (cell lysate)
T1 sequence (P78540 23-354): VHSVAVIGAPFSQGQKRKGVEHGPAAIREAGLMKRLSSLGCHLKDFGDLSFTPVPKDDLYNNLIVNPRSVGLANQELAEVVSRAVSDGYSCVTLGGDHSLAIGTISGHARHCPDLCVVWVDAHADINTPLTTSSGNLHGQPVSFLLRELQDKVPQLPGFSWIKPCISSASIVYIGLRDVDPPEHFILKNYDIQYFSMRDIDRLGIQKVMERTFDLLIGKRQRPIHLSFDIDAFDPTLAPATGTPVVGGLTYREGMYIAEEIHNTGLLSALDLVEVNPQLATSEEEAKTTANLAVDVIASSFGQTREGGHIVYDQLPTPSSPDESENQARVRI
As to the kind of experiment: THP-1 lysate derived human ARG2 enzyme inhibition assay. Type of test: biochemical. The procedure:
Anti-ARG2 IgGs were tested for their ability to inhibit mammalian expressed human ARG2 produced in transfected THP-1 cells. To do this cell lysates were prepared from THP-1 cells overexpressing human ARG2 and from wild type THP-1 cells. 350 million cells were suspended in 3 ml tris buffered saline (25 mM Tris+150 mM sodium chloride in dH2O, pH 7.4) and cell lysates prepared by passing through a 26G needle 20 times. A BCA assay was used to measure the protein concentration in the lysate. […] Antibodies were tested alongside N-Hydroxyl-L-Arginine (a small molecule competitive inhibitor of ARG2) as a positive control and CEA6 (irrelevant isotype control antibody) as a negative control. Data points were plotted and IC50 values determined using a four parameter fit in GraphPad Prism (FIG. 11, Table 13).
Anti-ARG2 IgGs were tested for their ability to inhibit to mammalian expressed human ARG2 produced in transfected THP-1 cells. […] Urea detection reagents, O-Phthaldialdehyde (1.5 mM O-Phthaldialdehyde, 7% H2SO4, 0.03% Brij L23) and N-(1-Napthyl)ethylenediamine (1.66 mM N-(1-Napthyl)ethylenediamine, 81 mM Boric acid, 21% H2SO4, 0.03% Brij L23) were mixed 1:1 just prior to use and 80 μl/well were added, incubated for 1 hour at room temperature and absorbance at 505 nm was read on a Pherastar plate reader. […]

Test [3] has as its target T2, monomeric ARG2 (Homo sapiens, UniProt P78540, E275Q).
T2 construct: human ARG2 (aa23-354); His10 (C); made in house; host or cells: E. coli
T2 sequence (P78540 23-354 E275Q): T1 sequence (P78540 23-354) with E253Q
As to the kind of experiment: Human monomeric ARG2 enzyme inhibition assay. It is filed as biochemical. The following applies: purified recombinant human IgG1, FIG. 5. The procedure:
ARG2 specific recombinant IgG1 were screened for their ability to inhibit enzymatic activity of monomeric ARG2. In this assay, the ability of ARG2 specific recombinant IgG1 to inhibit the enzymatic activity of monomeric ARG2 was determined by measuring the production of urea, the product of L-arginine turnover by monomeric ARG2.
IC50 values were determined by testing a dilution series of the ARG2 specific recombinant IgG1, prepared in TBS.
10 μl of ARG2 specific recombinant IgG1 (dilution series) were added to a Greiner Bio-One® 384 well assay plate (Greiner Bio-one, UK; cat: 781901). […]
Urea was detected by the simultaneous addition of equal volumes of O-Phthaldialdehyde (1.5 mM O-Phthaldialdehyde, 7% H2SO4, 0.03% Brij L23) and N-(1-Napthyl)ethylenediamine (1.66 mM N-(1-Napthyl)ethylenediamine, 81 mM Boric acid, 21% H2SO4, 0.03% Brij L23) followed by an 18 minute incubation at room temperature before the colorimetric product was quantified on the Pherastar by measuring absorbance at 505 nm.
ARG2 specific recombinant IgG1 were tested alongside N-Hydroxyl-L-Arginine (a small molecule competitive inhibitor of ARG2) as a positive control and NIP228 (irrelevant isotype control antibody) as a negative control. Data points were plotted and IC50 values determined using a four parameter fit in GraphPad Prism (FIG. 5).

Test [4] addresses T3, ARG2 (Homo sapiens, UniProt P78540).
T3 sequence (P78540 23-354): T1 sequence (P78540 23-354)
In words: T cell proliferation assay (BrdU, 72 hours) with exogenous ARG2. Type of test: cell-based. The settings on record: In Absence of rhARG2. Here is the method: (§1) This assay served to provide in vitro evidence of functional efficacy for each antibody.
(§2) Briefly, Leukocyte cones (NHS Blood and Transplant, Watford, UK) underwent Ficoll Plaque (GE, Sweden; Cat: 17-1440-02) gradient separation, PBMC's were extracted and pan T cell population isolated by negative selection using the Human T Cell Enrichment Kit (Stemcell Technologies, France; Cat: 19051) according to the manufacturer's instructions.
(§3) 40000 cells/well were seeded in complete growth media (RMPI 1640, 5% Human Serum Albumin) into a 96 well clear TC treated microplate (Greiner-Bio One, Germany; Cat: 655180). T Cells were activated by the addition of ImmunoCult CD3/CD28 (Stemcell Technologies, France; Cat: 10971) at a dilution of 1:40 directly into wells and the plate incubated 37° C., 5% CO2 for 45 minutes.
(§4) To determine EC50's of test antibodies, a dilution series was created in sterile TBS at 8× the final assay concentration was added to the assay plate containing cells. Plate was incubated for 30 minutes at 37° C., 5% CO2.
(§5) ARG2 was added to relevant wells of the plate at a final concentration of 15 μg/ml. The equivalent volume of ARG2 vehicle and test antibody vehicle was added to relevant control wells. […]
(§6) Calculated data was expressed as % of control (Equation 3) and graphical plots were constructed using a four parameter fit and EC50's determined using model 205 in XLFit (IDBS, UK). […]

Test [5] deals with T3, ARG2. The test is described as above. Further details: human ARG2 (aa23-354); His10 (C); made in house; host or cells: E. coli BL21 (DE3). The following applies: In Presence of rhARG2, NHLA value at 0.444 mM. It is filed as cell-based. Here is the method: as §1, §2, §3, §4, §5, §6
For test [6], the target named is T4, trimeric human ARG2 (Homo sapiens, UniProt P78540).
T4 construct: human ARG2 (aa23-354); His10 (C); made in house; host or cells: E. coli BL21 (DE3)
T4 sequence (P78540 23-354): T1 sequence (P78540 23-354)
As to the kind of experiment: Human trimeric ARG2 enzyme inhibition assay (urea production). It is filed as biochemical. The procedure: Unpurified anti-ARG2 scFv fragments from periplasmic preparations were screened in an ARG2 enzyme inhibition assay using a Pherastar plate reader (BMG Labtech, Germany). In this assay, the ability of unpurified scFv to inhibit the enzymatic activity of trimeric ARG2 was determined by measuring the production of urea, the product of L-arginine turnover by ARG2.
Selection outputs were screened as unpurified bacterial periplasmic extracts containing scFv, prepared in 200 mM TES buffer pH 7.4, 0.5 mM EDTA and 0.5 M sucrose. 10 μl of unpurified scFv were added to a Greiner Bio-One® 384 well assay plate (Greiner Bio-one, UK; cat: 781901). […]
Urea was detected by the simultaneous addition of equal volumes of O-Phthaldialdehyde (1.5 mM O-Phthaldialdehyde, 7% H2SO4, 0.03% Brij L23) and N-(1-Napthyl)ethylenediamine (1.66 mM N-(1-Napthyl)ethylenediamine, 81 mM Boric acid, 21% H2SO4, 0.03% Brij L23) followed by an 18 minute incubation at room temperature before the colorimetric product was quantified on the Pherastar by measuring absorbance at 505 nm. […]
Data were analysed by calculating % maximum (max) control for each sample using the 505 nm absorbance data. % max control was determined according to equation 2. […]
Data were again analysed by calculating % Max control values for each sample. […]

One may read the Kd as a measure of binding affinity in units of concentration. For `N[C@@H](CCCCB(O)O)C(=O)O` [ABH, 2(S)-amino-6-boronohexanoic acid], in test [1], the Kd is approximately 300 nM.
Turning to `N[C@@H](CSCCB(O)O)C(=O)O` [BEC, S-(2-boronoethyl)-L-cysteine], the Kd in test [1] was approximately 300 nM.
For orientation: Km means the substrate concentration at which the rate is half of its maximum. Consider `N=C(N)NCCC[C@H](N)C(=O)O` [L-arginine], for which the Km in test [1] (natural substrate of arginase) is 5 mM.
Usually IC50 stands for the point on the concentration scale where inhibition reaches its midpoint. One may read the EC50 as the concentration needed to bring the measured effect to its halfway point. Lower therefore signals greater potency. Consider `NC(=NO)NCCC[C@H](N)C(=O)O` [NHLA, NG-Hydroxy-L-arginine, reference compound], for which the IC50 in test [2] (methods of section 2.8, FIG. 16, read-out: THP-1 ARG2 EIA IC50) came to 12900 nM; in test [2] (recombinant human IgG1, lysate without plasma (section 3.3), FIG. 13, read-out: THP-1 lysate ARG2 EIA IC50), 4750 nM. In addition, the “inhibition of the activity of human monomeric ARG2” value in test [3] is recorded as “able to inhibit”. For the same molecule, the EC50 in test [4] was less than 1800 nM. The “Maximum % Proliferation” value in test [4] is on record as 80%; in test [5] it was 49* %. In addition, the “inhibition of the activity of human trimeric ARG2” value is “able to inhibit” in test [6] (purified recombinant human IgG1, FIG. 3) and “able to inhibit” in test [6] (purified scFv, FIG. 2).
